Patent US20030176508A1, “Ferulic acid ethyl-guaiacol or vinyl-guaiacol as preservative combination in cosmetic compositions” (priority 2000, published 2003)

How the values were obtained:
Type in all cases: cell-based
Bacteria Pool [1] = assay: Challenge test of shampoo with bacteria pool; design: key: 1: 0 (No Growth); 2: 1-4; 3: 5-10; 4: 11-25; 26-50; 6: 51-100; 7: 101-200; 8: 201-300; 9: (TNTC) too numerous to count; 10: (TNTC) solid m; details: 1000 ppm of each compound; for Bacterial Growth Rating 1 wk: streaked 1 week after inoculation; for Bacterial Growth Rating 2 wk: streaked 2 weeks after inoculation; for Bacterial Growth Rating 3 wk: streaked 3 weeks after inoculation; for Bacterial Growth Rating 1 day: streaked 1 day after inoculation; for Bacterial Growth Rating 2 day: streaked 2 days after inoculation
Experimental: (§1) The samples were tested by the challenge test described below. In this challenge test, samples were stored at room temperatures, inoculated at zero days and streaked at 0 days, 1 day, 2 days, 1 week, 2 weeks and 3 weeks. […] Twenty-five grams of sample are weighed out in one-ounce glass jars. […] Biocide was dissolved into solution before use and different concentrations are prepared by adding the appropriate amount of the biocide solution to the samples. […] A negative control is included using a sample without any biocide. 4. The bacteria pool inoculum is made fresh on the day of inoculation by using equal volumes of the 24 hour cultures of the ATCC bacteria grown individually in nutrient broth at 30° C. […] 5. Before inoculation, samples are streaked on TSA (tryptic soy agar) plates with sterile cotton swabs. The plates are incubated at 30° C. for 48 hours and then read using a bacterial colony counter and rated for microbial growth according to the Growth Rating Chart. […] Samples are inoculated with 0.05 mL (for 25 g samples) of the […]. […] Immediately after inoculation, samples are streaked with sterile cotton swabs on TSA plates. The plates are then incubated at 30° C. for 48 hours. The samples are incubated at room temperature. 8. Samples are streaked again at 1 day, 2 days, 1 week, 2 weeks and 3 weeks. […] All plates are incubated 48 hours at 30° C. then read and rated according to the Growth Rating Chart. […] Samples are kept at room temperature.

Bacteria Pool [2] = assay: Challenge test of hand lotion with bacteria pool; design: key to Bacterial Growth Rating 1 day / Bacterial Growth Rating 1 wk / Bacterial Growth Rating 3 wk: 1: 0 (No Growth); 2: 1-4; 3: 5-10; 4: 11-25; 26-50; 6: 51-100; 7: 101-200; 8: 201-300; 9: (TNTC) too numerous to count; 10: (TNTC) solid m; details: 1000 ppm of each compound; for Bacterial Growth Rating 1 wk: streaked 1 week after inoculation; for Bacterial Growth Rating 2 wk: streaked 2 weeks after inoculation; for Bacterial Growth Rating 3 wk: streaked 3 weeks after inoculation; for Bacterial Growth Rating 1 day: streaked 1 day after inoculation; for Bacterial Growth Rating 2 day: streaked 2 days after inoculation
Experimental: as §1

[3] = tested on: Saccharomyces cerevisiae #4105; assay: Challenge test of hand lotion with A. niger and S. cerevisiae (S. cerevisiae rating); details: 1000 ppm of each compound, S. cerevisiae (second figure of cell); for Bacterial Growth Rating 1 wk: 1 week; for Bacterial Growth Rating 2 wk: 2 weeks; for Bacterial Growth Rating 3 wk: 3 weeks; for Bacterial Growth Rating 2 day: 2 days
Experimental: (§2) The samples were tested by the challenge test described below. In this challenge test, samples were stored at room temperatures, inoculated at zero days and streaked at 0 days, 1 day, 2 days, 1 week, 2 weeks and 3 weeks. […] Twenty-five grams of sample are weighed out in one-ounce glass jars. […] Biocide is dissolved into solution before use and different concentrations are prepared by adding the appropriate amount of the biocide solution to the samples. […] A negative control is included using a sample without any biocide. […] Before inoculation, samples are streaked on MYA (malt yeast agar) plates with sterile cotton swabs. The plates are incubated at 30° C. for 48 hours and then read using a bacterial colony counter and rated for microbial growth according to the Growth Rating Chart. […] 5. The inoculum is prepared by adding 9.9 mL sterile 0.85% saline solution to a pure culture slant grown on MYA. A cotton-tipped swab is used to gently rub the surface of the slant to free the cells. […] The yeast and fungus used are: [table] […] Samples are inoculated with 0.05 mL (for 25 g samples) of the An suspension and 0.05 mL of the Sc suspension. 7. Immediately after inoculation, samples are streaked with sterile cotton swabs on MYA plates. The plates are then incubated at 30° C. for 48 hours. The samples are incubated at room temperature. 8. Samples are streaked again at 1 day, 2 days, 1 week, 2 weeks and 3 weeks. 9. All plates are incubated 48 hours at 30° C. then read and rated according to the Growth Rating Chart. Samples are kept at room temperature.

[4] = tested on: Aspergillus niger ATCC #16404; assay: Challenge test of hand lotion with A. niger and S. cerevisiae (A. niger rating); details: 1000 ppm of each compound, A. niger (first figure of cell); for Bacterial Growth Rating 1 wk: 1 week; for Bacterial Growth Rating 2 wk: 2 weeks; for Bacterial Growth Rating 3 wk: 3 weeks; for Bacterial Growth Rating 2 day: 2 days
Experimental: as §2

SMILES | Bacterial Growth Rating 1 wk (Bacteria Pool [1]) | Bacterial Growth Rating 2 wk (Bacteria Pool [1]) | Bacterial Growth Rating 3 wk (Bacteria Pool [1]) | Bacterial Growth Rating 1 day (Bacteria Pool [1]) | Bacterial Growth Rating 2 day (Bacteria Pool [1]) | Bacterial Growth Rating 1 wk (Bacteria Pool [2]) | Bacterial Growth Rating 2 wk (Bacteria Pool [2]) | Bacterial Growth Rating 3 wk (Bacteria Pool [2]) | Bacterial Growth Rating 1 day (Bacteria Pool [2]) | Bacterial Growth Rating 2 day (Bacteria Pool [2]) | Bacterial Growth Rating 1 wk [3] | Bacterial Growth Rating 2 wk [3] | Bacterial Growth Rating 3 wk [3] | Bacterial Growth Rating 1 day [3] | Bacterial Growth Rating 2 day [3] | Bacterial Growth Rating 1 wk [4] | Bacterial Growth Rating 2 wk [4] | Bacterial Growth Rating 3 wk [4] | Bacterial Growth Rating 1 day [4] | Bacterial Growth Rating 2 day [4]
CCc1ccc(O)c(OC)c1 [ethylguaiacol, 4-ethyl-2-methoxyphenol] | 9 | 9 | 9 | 9 | 9 | 5 (26-50) | 4 (11-25) | 1 (0 (No Growth)) | 9 | 6 (51-100) | 4 (11-25) | 2/2 (1-4) | 3/3 (5-10) | 4/4 (11-25) | 4 (11-25) | 3 (5-10) | 2/2 (1-4) | 3/3 (5-10) | 4/4 (11-25) | 3 (5-10)
COc1cc(C=CC(=O)O)ccc1O [ferulic acid, 4-hydroxy-3-methoxycinnamic acid] | 9 | 9 | 9 | 9 | 9 | 9 | 6 (51-100) | 9 | 7 (101-200) | 6 (51-100) | 3/3 (5-10) | 3 (5-10) | 4 (11-25) | 6 (51-100) | 6 (51-100) | 3/3 (5-10) | 4 (11-25) | 3 (5-10) | 4 (11-25) | 4 (11-25)
C=Cc1ccc(O)c(OC)c1 [vinylguaiacol, 4-hydroxy-3-methoxystyrene] | 8 (201-300) | 9 | 9 | 9 | 9 | 4 (11-25) | 3 (5-10) | 1 (0 (No Growth)) | 4 (11-25) | 3 (5-10) | 2 (1-4) | 1 (0 (No Growth)) | 1 (0 (No Growth)) | 2 (1-4) | 3 (5-10) | 1 (0 (No Growth)) | 1 (0 (No Growth)) | 1 (0 (No Growth)) | 3 (5-10) | 1 (0 (No Growth))
